Converted amounts (≈) assume the structure as drawn.
Key:
Aphidius rhopalosiphi = assay: LR50; higher = less toxic; details: acute; duration: 48 hours; mortality
Daphnia magna = details: chronic/long-term; duration: 21 days; reproduction
Bibionidae = details: chronic/long-term; duration: 28 days; development
Folsomia candida = details: chronic/long-term; duration: 28 days; reproduction
Pimephales promelas = details: chronic/long-term; duration: 301 days; other
Oncorhynchus mykiss = details: acute; duration: 96 hours; mortality
Oryctolagus sp. = details: reproduction developmental; body weight
Apis mellifera = details: acute; duration: 48 hours; dermal; mortality
Neomysis kadiakensis = details: chronic/long-term; duration: 35 days; reproduction
Rattus norvegicus = details: body weight
Lycopersicon sp. = details: not reported; seedling emergence
Canidae = details: oral, Dog Other, body weight
Mus musculus = details: chronic; duration: 78 weeks; body weight
Cyprinodon variegatus = details: acute; duration: 96 hours; mortality

CC(C)(C)c1ccc(CSc2cnn(C(C)(C)C)c(=O)c2Cl)cc1 [Pyridaben]
LR50 (Aphidius rhopalosiphi): 0.24 g/ha
NOEC (Daphnia magna): 8.6e-05 mg/L
NOEC (Bibionidae): 0.0051 mg/L
NOEC (Folsomia candida): 3.28 mg/kg
NOEC (Pimephales promelas): 0.00028 mg/L
LC50 (Oncorhynchus mykiss): 0.73 ng/mL (≈ 0.002 µM)
NOAEL (Oryctolagus sp.): 5 mg/kg-day
LD50 (Apis mellifera): > 0.024 µg/piece
LC50 (Colinus virginianus; acute, oral, diet, mortality): > 4300 mg/kg-day
LD50 (Colinus virginianus; acute, oral, mortality): > 2250 mg/kg-day
NOEC (Colinus virginianus; reproduction developmental): 130 mg/kg-day
NOEC (Neomysis kadiakensis): 4.7e-05 mg/L
LD50 (Anas platyrhynchos; acute, oral, unspecified, mortality): > 2500 mg/kg-day
NOEC (Anas platyrhynchos; reproductive): 10 mg/kg-day
NOEC (Anas platyrhynchos; short-term, oral, feed, mortality): 659 mg/kg-day
NOEC (Rattus norvegicus; chronic): 2.37 mg/kg-day
NOAEL (Rattus norvegicus; chronic, duration: 2 years): 1.1 mg/kg-day
NOAEL (Rattus norvegicus; reproduction developmental): 4.7 mg/kg-day
LC50 (Tagia sp.; acute, duration: 14 days, mortality): > 38 mg/kg
NOEC (Tagia sp.; chronic/long-term, duration: 56 days, reproduction): 0.29 mg/kg
LEL (Lycopersicon sp.): 560 g/ha
NOAEL (Canidae; chronic, duration: 1 years): 1 mg/kg-day
NOAEL (Canidae; subchronic, duration: 3 months): 1 mg/kg-day
NOAEL (Mus musculus): 0.81 mg/kg-day
LC50 (Cyprinodon variegatus): 17 ng/mL (≈ 0.0466 µM)
